≈ marks a conversion by molar mass, not a printed value. Where a SMILES comes first, the peptide text is derived from it.
What was measured:
P. aeruginosa ATCC 27853 = type: cell-based, Pseudomonas aeruginosa; details: for MIC P. aeruginosa ATCC 27853: CLSI microdilution, 2-fold dilutions, ~5 x 10^5 cells/ml, 37°C, 18 hours, MIC = lowest concentration inhibiting growth by at least 80%
Procedure: (§1) All plates were placed at 37°C overnight.

P. aeruginosa ATCC 39324 = type: cell-based, Pseudomonas aeruginosa; details: for MIC P. aeruginosa ATCC 39324: CLSI microdilution, 2-fold dilutions, ~5 x 10^5 cells/ml, 37°C, 18 hours, MIC = at least 80% growth inhibition
Procedure: as §1

293T human cell line = assay: Mammalian cell cytotoxicity (CellTiter Glo); type: cell-based; details: for Cytotox CC50: 293T cells, 10,000 cells/well, three days, 37°C, CellTiter Glo luminescence
Procedure: On day one, cells from an established 293T human cell line were seeded onto 96-well flat-bottom white plates (10,000 293T cells/well). On day two, dilution plates were prepared by diluting compound in cell growth medium to two times the final starting concentration and then carrying out serial two-fold dilutions across the plate. Medium from the cell growth assay plates was then aspirated, and 50 μl from the compound dilution plates were transferred to the assay plates. Fifty microliters of fresh media were then added to all the wells. The plates were incubated at 37°C, 5% CO2 for three days. […]. Media from the assay plates was aspirated, and 100 μl of CellTiter Glo/growth media mix was added to all wells. After five minutes, luminescence was read, and% inhibition vs. compound concentration was plotted.

E. coli ATCC 25922 = details: for MIC E. coli ATCC 25922: CLSI microdilution, 2-fold dilutions, ~5 x 10^5 cells/ml, 37°C, 18 hours, MIC = at least 80% growth inhibition
Procedure: (§2) MICs and a killing assay were performed in this study. MICs were determined according to CLSI guidelines, using 2-fold serial compound dilutions in 96-well microtiter plates. Briefly, compounds were diluted in water across a mother plate and then 2 μl were stamped to assay plates—one plate for each strain to be tested. Bacterial strains were sub-cultured overnight on agar plates at 37°C. […] These concentrated cultures were diluted 1:200 in growth media to approximately 5 x 10^5 cells/ml. All assay plates received 100 μL diluted culture per well. All plates were placed at 37°C overnight. […] Wells at and above the MIC should appear devoid of growth when visualized.

S. aureus 29213 = details: for MIC S. aureus 29213: CLSI microdilution, 2-fold dilutions, ~5 x 10^5 cells/ml, 37°C, 18 hours, MIC = at least 80% growth inhibition
Procedure: as §2

P. aeruginosa = assay: Killing assay, strains not itemised; type: cell-based, Pseudomonas aeruginosa; details: P. aeruginosa ATCC strains; 1 x10^4 cells/ml in PBS + 1% BSA, 37°C, 90 minutes, CFU plating; EC50 = lowest concentration causing > 50% colony reduction
Procedure: (§3) Overnight plates were used to seed 30 ml cultures of growth media in 250 ml vented flasks. Cultures were grown aerobically at 37°C with shaking at 150 rpm. Growth was monitored at A600, and bacterial cells were harvested at mid-log growth. Ten milliliters of culture were pelleted at 4000 x g for 10 minutes and washed once with PBS + 1% BSA (PBSA) prior to resuspension in 2 ml of PBSA. The concentrated culture was used to seed 6 ml tubes of PBSA to an OD giving a concentration of 1 x 10^8 cells/ml. Cultures were diluted to 1 x10^4 cells/ml in PBSA. Test substances were diluted in PBSA, and 50 μL per concentration tested were loaded into a 96-well polypropylene microtiter plate. Fifty microliters of diluted culture were added to all test wells and all no-compound control wells. Plates were shaken and then incubated at 37°C for 90 minutes without shaking. Ten microliters from each assay well were plated onto agar plates and incubated at 37°C overnight. Percent killing was determined by the CFU for test wells vs. the CFU for no-compound control wells.

P. aeruginosa BAA-2110 = assay: Killing assay; type: cell-based, Pseudomonas aeruginosa; details: third-generation cephalosporin-resistant strain; PBS + 1% BSA, 37°C, 90 minutes
Procedure: as §3

in vitro = details: human, normal human serum diluted in water
Procedure: The supernatant was warmed to 37°C in a water bath. Twenty microliters of each test article were placed in a 2.0 ml round bottom microfuge tube. Two milliliters of diluted NHS were added to each tube, which was immediately vortexed, followed by transfer of 200 μl to a fresh microfuge tube placed at 37°C in a rotating rack.
Twenty microliters of each test article at 10 mg/ml were placed in a 2.0 mL round-bottomed microfuge tube. […] The tubes were immediately vortexed, and 200 μl were transferred to a fresh microfuge tube with 40 μl of 1% trichloroacetic acid (TCA). Assay tubes were placed at 37°C in a rotating rack. […] Supernatant from each tube was collected and frozen at -20°C for analysis. Mass spectrometry was used to quantify the percentage of test substance still intact.

[1] = system: P. aeruginosa ATCC 27853 and P. aeruginosa ATCC 39324; details: two ATCC strains of P. aeruginosa, CLSI
Procedure: as §2

MIC in human serum = type: cell-based; details: ratio to MIC, strain not given, NA = no activity in human serum
[2] = system: red blood cells (defibrinated sheep's blood); assay: RBC hemolysis assay; type: cell-based; details: RBCs
Procedure: Test substances were diluted 2-fold in water across a 96-well polypropylene mother plate, leaving one no-compound control. Two microliters from each well were stamped onto a 96-well polystyrene assay plate. A red blood cell suspension was made by mixing 0.2% defibrinated sheep’s blood (Hardy Diagnostics DSB100) in PBS. All assay plates received 100 μl/well of the red blood cell suspension. Plates were then incubated at 37°C overnight.

[3] = molar equivalent of the MIC, unit not given

| Structure (SMILES) | MIC P. aeruginosa ATCC 27853 (P. aeruginosa ATCC 27853) [µg/mL] | MIC P. aeruginosa ATCC 39324 (P. aeruginosa ATCC 39324) [µg/mL] | Cytotox CC50 (293T human cell line) [µg/mL] | MIC E. coli ATCC 25922 (E. coli ATCC 25922) [µg/mL] | MIC S. aureus 29213 (S. aureus 29213) [µg/mL] | EC50 in the killing assay (P. aeruginosa) [µg/mL] | EC50 killing assay, BAA-2110 (P. aeruginosa BAA-2110) [µg/mL] | half-life at 0.099 mg/ml (in vitro) [min] | cytotoxicity against 293T relative to the MIC (293T human cell line) | MIC in an MIC assay [1] [µg/mL] | Human Serum hsMIC/MIC (MIC in human serum) | MIC P. aeruginosa ATCC 27853, molar equivalents (number in parentheses) (P. aeruginosa ATCC 27853; [3]) | MIC P. aeruginosa ATCC 39324, molar equivalents (number in parentheses) (P. aeruginosa ATCC 39324; [3]) | MIC E. coli ATCC 25922, molar equivalents (number in parentheses) (E. coli ATCC 25922; [3]) | MIC S. aureus 29213, molar equivalents (number in parentheses) (S. aureus 29213; [3]) | cytotoxic activity (293T human cell line; mammalian cells / 293T) | hemolytic activity [2] |
| --- | --- | --- | --- | --- | --- | --- | --- | --- | --- | --- | --- | --- | --- | --- | --- | --- | --- |
| CSCC[C@H](NC(=O)[C@H](CO)NC(=O)[C@H](C)NC(=O)[C@H](C)NC(=O)[C@H](C)NC(=O)[C@H](C)NC(=O)[C@H](C)NC(=O)[C@H](C)NC(=O)[C@H](C)NC(=O)[C@H](CC(N)=O)NC(=O)[C@H](C)NC(=O)[C@H](C)NC(=O)[C@@H](NC(=O)[C@H](CC(C)C)NC(=O)[C@H](C)NC(=O)[C@H](C)NC(=O)[C@H](C)NC(=O)[C@H](C)NC(=O)[C@H](C)NC(=O)[C@H](C)NC(=O)[C@H](CC(=O)O)NC(=O)[C@H](CO)NC(=O)[C@H](C)NC(=O)[C@@H](NC(=O)[C@H](Cc1c[nH]cn1)NC(=O)CNC(=O)CNC(=O)CN)[C@@H](C)O)[C@@H](C)O)C(=O)N[C@@H](C)C(=O)O [P292] (H-GGGHTASDAAAAAALTAANAAAAAAASMA-OH) | > 128 | > 128 | 250 | > 128 | > 128 | – | – | – | – | – | – | – | – | – | – | – | – |
| CC[C@H](C)[C@H](NC(=O)[C@@H](NC(=O)[C@H](CCCNC(=N)N)NC(=O)[C@@H]1CCCN1C(=O)[C@H](CCCCN)NC(=O)[C@H](CCCCN)NC(=O)[C@H](Cc1ccccc1)NC(=O)[C@H](Cc1ccccc1)NC(=O)[C@H](CCC(=O)O)NC(=O)[C@H](CCCCN)NC(=O)[C@H](C)NC(=O)[C@H](CCCNC(=N)N)NC(=O)[C@H](CCCCN)NC(=O)[C@H](CCCCN)NC(=O)[C@@H](NC(=O)[C@H](CO)NC(=O)[C@H](CCCCN)NC(=O)[C@H](CCCCN)NC(=O)[C@H](CC(C)C)NC(=O)[C@H](CCCCN)NC(=O)[C@H](CCCNC(=N)N)NC(=O)[C@H](Cc1ccccc1)NC(=O)[C@H](Cc1ccccc1)NC(=O)[C@H](CCCCN)NC(=O)CNC(=O)CNC(=O)CN)C(C)C)C(C)C)C(=O)NCC(=O)N[C@H](C(=O)N[C@@H](CO)C(=O)N[C@H](C(=O)N1CCC[C@H]1C(=O)N[C@@H](Cc1ccccc1)C(=O)O)[C@@H](C)CC)C(C)C [P297] (H-GGGKFFRKLKKSVKKRAKEFFKKPRVIGVSIPF-OH) | 4 (≈ 1.05 µM) | 2 (≈ 0.525 µM) | 780 | – | – | 0.14 to 0.28 | 0.14 to 0.28 | ~20 | approximately 200 fold | 2 to 4 | – | – | – | – | – | – | – |
| CC(C)(O/N=C(\C(=O)N[C@@H]1C(=O)N2C(C(=O)[O-])=C(C[n+]3ccccc3)CS[C@H]12)c1csc(N)n1)C(=O)O [Ceftazadime, reference compound] | 1 (≈ 1.83 µM) | 1 (≈ 1.83 µM) | 550 | 0.25 (≈ 0.457 µM) | 4 (≈ 7.32 µM) | – | – | – | – | – | 1 | 1.8 | 1.8 | 0.5 | 7.3 | – | – |
| CC[C@@H](C)[C@@H](NC(=O)[C@H](NC(=O)[C@@H](CCCNC(=N)N)NC(=O)[C@H]1CCCN1C(=O)[C@@H](CCCCN)NC(=O)[C@@H](CCCCN)NC(=O)[C@@H](Cc1ccccc1)NC(=O)[C@@H](Cc1ccccc1)NC(=O)[C@@H](CCC(=O)O)NC(=O)[C@@H](CCCCN)NC(=O)[C@@H](C)NC(=O)[C@@H](CCCNC(=N)N)NC(=O)[C@@H](CCCCN)NC(=O)[C@@H](CCCCN)NC(=O)[C@H](NC(=O)[C@@H](CO)NC(=O)[C@@H](CCCCN)NC(=O)[C@@H](CCCCN)NC(=O)[C@@H](CC(C)C)NC(=O)[C@@H](CCCCN)NC(=O)[C@@H](CCCNC(=N)N)NC(=O)[C@@H](Cc1ccccc1)NC(=O)[C@@H](Cc1ccccc1)NC(=O)[C@@H](CCCCN)NC(=O)CNC(=O)CNC(=O)CN)C(C)C)C(C)C)C(=O)NCC(=O)N[C@@H](C(=O)N[C@H](CO)C(=O)N[C@@H](C(=O)N1CCC[C@@H]1C(=O)N[C@H](Cc1ccccc1)C(=O)O)[C@H](C)CC)C(C)C [D297] (HELM PEPTIDE1{G.G.G.[dK].[dF].[dF].[dR].[dK].[dL].[dK].[dK].[dS].[dV].[dK].[dK].[dR].[dA].[dK].[dE].[dF].[dF].[dK].[dK].[dP].[dR].[dV].[dI].G.[dV].[dS].[dI].[dP].[dF]}$$$$V2.0) | – | – | – | – | – | – | – | – | – | – | – | – | – | – | – | low | low |

Source: PMC10508631, “Development of an antibody fused with an antimicrobial peptide targeting Pseudomonas aeruginosa: A new approach to prevent and treat bacterial infections” (PLOS Pathogens, 2023)
